Measured values from patent US6235761A, “Compound, composition and method for treating cancer” (priority 1999, dated 2001).

How the values were obtained:
HT29 colon tumor = assay: sc HT29 colon tumor in athymic mice (Table 2); assay type: in vivo, human tumor in athymic mice (Ncr-nu); conditions: for T-C / Tumor-Free Survival/Total: days 14-18
Description: This Example illustrates the efficacy of penclomedine and 4-demethylpenclomedine in the treatment of cancer. MX-1 mammary tumor xenograft was subcutaneously implanted into mice, and the mice were exposed to the compounds. The testing of the mice was performed following a published procedure. See, e.g., Plowman et al., supra; Geran et al., Cancer Chemother. Rep., Part 2, 1-55 (1972); Developmental Therapeutics Program, Division of Cancer Treatment, NCI, in In Vivo Models 1976-1982, NIH Publication No. 84-2635, Washington D.C., U.S. Govt. Printing Office (1984).
This Example further illustrates the efficacy of penclomedine and 4-demethylpenclomedine in the treatment of cancer. The compounds were tested in vivo on mice by the procedure set forth in Example 2. The results obtained are set forth in Table 2 and confirm that 4-demethyl-penclomedine is active against cancer, particularly mammary, colon, and renal cancer.
^a Athymic mice (Ncr-nu) were implanted either intracranially (ic) with
18 human MX-1 mammary tumor cells or subcutaneously (sc) with fragments of
human tumors (CAKI-, renal; HT29, colon; MX-1, mammary).
^b The difference in the median of time poststaging for tumors to
double in mass: T (treated mice), C (control mice)

[1] = Distribution of penclomedine and its metabolites in mouse tissues; assay type: in vivo, CD2F1 mice; conditions: for level in liver: mouse liver versus other tissues
Description: CD2F1 Mice were obtained from Harlan Sprague-Dawley (Frederick, Md.). During the course of this study, mice were housed in polyethylene shoe box cages without bedding and given access to food and water. Four mice were used per time point.
^14 C-Penclomedine (specific activity 17.6 and 18.9 mCi/mM, labeled at CCl3) was obtained from Research Triangle Institute (Research Triangle Park, N.C.) and stored at -20° C. The site of radiolabel has been conserved in all penclomedine metabolites identified to date. The composition of the radioactive material was determined to be 99% ^14 C-penclomedine, by HPLC coupled with radiochemical detection.
^14 C-penclomedine (1 mCi/ml in ethanol) was added to the clinical penclomedine emulsion to give an activity of […] (4% ethanol final concentration). The mice were administered the above penclomedine formulation at 40 mg/kg (120 mg/m^2, […]) either intravenously via tail vein or orally via gavage. At 1, 2, 4, and 22 hours after intravenous administration and 2,4, 6, and 22 hours after oral administration, animals were euthanized with carbon dioxide and blood tissues were collected. Blood tissues from each time point were pooled. Blood was centrifuged and plasma and red cells were separated; tissues were homogenized in 3 volumes of 100 mM ammonium formate buffer pH 6.5. Urinary output was estimated by washing the cages with water after removing food and feces and concentrating these cage washings.
A 1 ml aliquot of tissue homogenate or a […] was acidified with 200 ml of 0.7 M ammonium phosphate pH 2.7, then 3 ml of ethyl acetate was added. This mixture was vortexed, centrifuged and the organic layer was collected. Fifty microliters of DMSO were added, and the ethyl acetate was concentrated to approximately […] with a stream of dry nitrogen. Fifty microliters of acetonitrile were added to this residue, and the resulting solution was analyzed by HPLC. Human plasma was processed identically to mouse plasma with the exception that 500 ml of plasma was extracted. Concentrated cage washings were analyzed by HPLC without further processing.
Plasma and tissue protein binding data were measured on the residue of the above extractions. The aqueous phase was washed with 5 ml of ethanol, centrifuged, and the ethanol insoluble precipitate was washed again with 5 ml ethanol. After centrifugation the pellet was resuspended in 0.5 ml 6 M guanidinium chloride, added to 10 ml 3a70B scintillation cocktail (Research Products International Corp., Mount Prospect, Ill.), and counted for ^14 C.
HPLC Assays: The HPLC system consisted of a Hewlett-Packard Series II 1090 liquid chromatograph with diode array detector (Hewlett-Packard, Palo Alto, Calif.). The column used was an Alltech Adsorbosphere HS C18 5 m 250×4.6 mm column (Alltech Associates, Deerfield, Ill.). The system used a gradient elution consisting of 100% 10 mM ammonium phosphate buffer pH 2.7 progressing to 100% acetonitrile over 25 minutes at 1 ml/min. Detection was performed by means of ultraviolet absorbance at 240 nm as well as by means of radioactivity using a Radiomatic Flo-One/Beta A140 radioactive flow detector (Packard Instrument Co., Downers Grove, Ill.) equipped with a […] and Flo-Scint VI scintillation cocktail at a 2:1 ratio.
^14 C-Penclomedine derived radioactivity was determined in mouse urine samples collected at 1, 2, 4, and 22 hours following intravenous and oral administration of^14 C-penclomedine. […] There were considerable differences in metabolite distribution among the different tissues. […] Most compounds present in the 2 hour samples were detectable in the 22 hour samples at levels from 10% to 50% of those seen at 2 hours.

dogs = conditions: cited from earlier work
[2] = cited from earlier work
rats = conditions: dose related; during or immediately after infusion; cited from earlier work
[3] = system: patients with advanced solid tumors; conditions: cited from earlier work

COc1nc(C(Cl)(Cl)Cl)c(Cl)c(O)c1Cl [4-Demethylpenclomedine, 3,5-dichloro-2-methoxy-4-hydroxy-6-(trichloromethyl)-pyridine]
T-C (HT29 colon tumor; 90 mg/kg/dose IP): 6.0 days
Tumor-Free Survival/Total (HT29 colon tumor; 90 mg/kg/dose IP): 0/5
activity against colon tumors (T-C) (HT29 colon tumor; Table 2): active against MX-1, colon, and renal tumors
accumulation in fatty tissues compared with penclomedine ([1]; mouse): does not accumulate in fatty tissues as much as penclomedine
level in liver ([1]; 14C-penclomedine dosed): liver contained the highest levels of demethylpenclomedine

COc1nc(C(Cl)(Cl)Cl)c(Cl)c(OC)c1Cl [Penclomedine, 3,5-dichloro-2,4-dimethoxy-6-(trichloromethyl)pyridine]
T-C (HT29 colon tumor; 135 mg/kg/dose IP): 1.5 days
Tumor-Free Survival/Total (HT29 colon tumor; 135 mg/kg/dose IP): 0/5
Tissue Concentration ([1]; brain, 2 hours, i.v. 14C-penclomedine 40 mg/kg): 1.30 nmoles/gram wet tissue
Tissue Concentration ([1]; brain, 2 hours, p.o. 14C-penclomedine 40 mg/kg): 2.16 nmoles/gram wet tissue
Tissue Concentration ([1]; carcass, 2 hours, i.v. 14C-penclomedine 40 mg/kg): 14.8 nmoles/gram wet tissue
Tissue Concentration ([1]; carcass, 2 hours, p.o. 14C-penclomedine 40 mg/kg): 55.2 nmoles/gram wet tissue
Tissue Concentration ([1]; carcass, 22 hours, i.v. 14C-penclomedine 40 mg/kg): 5.15 nmoles/gram wet tissue
Tissue Concentration ([1]; carcass, 22 hours, p.o. 14C-penclomedine 40 mg/kg): 2.16 nmoles/gram wet tissue
Tissue Concentration ([1]; fat, 2 hours, i.v. 14C-penclomedine 40 mg/kg): 15.8 nmoles/gram wet tissue
Tissue Concentration ([1]; fat, 2 hours, p.o. 14C-penclomedine 40 mg/kg): 18.55 nmoles/gram wet tissue
Tissue Concentration ([1]; fat, 22 hours, i.v. 14C-penclomedine 40 mg/kg): 8.90 nmoles/gram wet tissue
Tissue Concentration ([1]; kidney, 2 hours, i.v. 14C-penclomedine 40 mg/kg): 6.45 nmoles/gram wet tissue
Tissue Concentration ([1]; kidney, 2 hours, p.o. 14C-penclomedine 40 mg/kg): 7.30 nmoles/gram wet tissue
Tissue Concentration ([1]; kidney, 22 hours, i.v. 14C-penclomedine 40 mg/kg): 1.21 nmoles/gram wet tissue
Tissue Concentration ([1]; kidney, 22 hours, p.o. 14C-penclomedine 40 mg/kg): 0.85 nmoles/gram wet tissue
Tissue Concentration ([1]; liver, 2 hours, i.v. 14C-penclomedine 40 mg/kg): 0.69 nmoles/gram wet tissue
Tissue Concentration ([1]; liver, 2 hours, p.o. 14C-penclomedine 40 mg/kg): 1.35 nmoles/gram wet tissue
Tissue Concentration ([1]; liver, 22 hours, p.o. 14C-penclomedine 40 mg/kg): 0.38 nmoles/gram wet tissue
level in liver ([1]; 14C-penclomedine dosed): the lowest levels of penclomedine
tissues with highest levels ([1]; mouse, 14C-penclomedine dosed): Highest levels of penclomedine were detected in the fat and carcass
detectability in 2 hour tissue samples ([1]; mouse, 2 hours): All 2 hour tissue samples contained detectable amounts of penclomedine
plasma penclomedine levels associated with severe emesis and seizures (dogs): above 30 μM
detectability in the nervous system ([2]; during the time period of neurologic symptoms, rats, O'Reilly et al.): penclomedine but not its metabolite is detectable in the nervous system
predominant radioactive species in the brain ([2]; tumor-bearing rats): the predominant radioactive species in the brain was ^14 C-penclomedine
neurotoxicity in rats (rats): muscle tremors, incoordination, convulsions and reduced activity
toxicities reported in preclinical and early clinical studies ([3]; human, in vivo): Neurological and hematological toxicities
principal dose limiting toxicity ([3]; one hour infusion for 5 consecutive days, advanced solid tumors): Neurotoxicity, consisting of dysmetria, ataxia, and vertigo
